Each structure is given as a SMILES string. Where two headings read alike, the source gives them in different places.

Five molecules from patent publication US4092350A, “Alkanoic acid, process for its production and method of use thereof” (priority 1975, dated 1978) can be followed below.

Data set [1] deals with Carrageenin-Induced Paw Edema. Nature of the data set: Inhibition of Carrageenin-Induced Paw Edema. The class given is in vivo, male Donryu rats. The note with it: Rattus norvegicus, rats, oral; for ED40: 3 h. As for the experimental part: (§1) (a) Inhibition of Carrageenin-Induced Paw Edema
(§2) Following the method of C. […] The volume of the paw was measured before and 3 hours after the carrageenin injection. The swelling index of the inflamed paw was calculated as follows. [formula]
(§3) Inhibitory percentage was calculated as follows. [formula] (b) Inhibition of Intraperitoneal Dye Leakage
(Carrageenan injected into the paw causes an acute inflammation.)

Data set [2] relates to Intraperitoneal Dye Leakage. Nature of the data set: Inhibition of Intraperitoneal Dye Leakage. The class given is in vivo, male Donryu rats. The note with it: Rattus norvegicus, 0.75 h, rats, oral. The method, then:
as §3
(§4) Five minutes thereafter, 0.2 ml. / 100 g. body weight of 3% acetic acid was injected intraperitoneally. The dye in the peritoneal exudation, sampled 45 minutes after the acetic acid injection, was subjected to the spectro-photometric estimation at 620 mμ. Inhibitory percentage was calculated as follows. [formula]

Data set [3] concerns Granuloma Formation. The data set is described as follows: Inhibition of Granuloma Formation by Granuloma Pouch Method. Type of data set: in vivo, male Wistar rats. The settings on record: Rattus norvegicus, 144 h; for ED20: read-out: ED20, Inhibition of Granuloma Formation by Granuloma Pouch Method. The method, then: (§5) (c) Inhibition of Granuloma Formation by Gramuloma Pouch Method
(§6) Thereafter, the compounds were administered orally. Beginning the next day, the compounds were administered orally at 9:00 a.m. and 4:00 p.m. for 6 days. The day after final administration, the granuloma pouches were removed and weighed. Inhibitory percentage was calculated as follows: [formula] (d) Acute Toxicity

Data set [4] in a line: in vivo. The note with it: rats, oral, 7-day observation. As for the experimental part: as §6
The compounds were administered orally in male Wistar rats weighing 200 ± 10 g. The rats were observed over a 7-day period.

Data set [5] deals with Acetylcholine-Induced Writhing. Nature of the data set: Analgesic Activity by Acetylcholine-Induced Writhing Method in Mice. Type of data set: in vivo, male SLC-ICR mice. The settings on record: Mus musculus, oral, 60 minutes before acetylcholine. The method, then: Following the method of C. A. Winter, et al. (J. Pharmac. Exp., Ther., 141, 369 (1963)), in male Donryu rats weighing 130 ± 10 g., two sterilized cotton pellets weighing 35 ± 1 mg. respectively were embedded subcutaneously at the lateral abdomen aseptically. Thereafter, the compounds were administered orally. Beginning the next day, the compounds were administered orally at 9:00 a.m. and 4:00 p.m. for 3 days. The day after final administration, the pellets were removed, dried and weighed to determine the weight of the granuloma formed around the pellets. Inhibitory percentage was calculated as follows: [formula] (f) Analgesic Activity by Acetylcholine-Induced Writhing Method in Mice
Following the method of S. S. Adams (Arch. Int. Pharmacodyn., 178, 115 (1969)), in male SLC-ICR mice weighing 20 ± 1 g., the writhing response was caused by the intraperitoneal injection of 0.1 ml. / 10 g. body weight of 7.5 mg. / kg. acetylcholine dissolved in physiological saline. The test compounds were administered orally 60 minutes before the acetylcholine injection, after which the frequency of response was counted in each animal for 8 minutes. Inhibitory percentage was calculated as follows. [formula] Note; Compound A: 2-[4-(2-methyl-3-oxobutyl)phenyl]propionic acid, […]

Data set [6] has as its system Granuloma Formation. The data set is described as follows: Inhibition of Granuloma Formation by Cotton Pellet Method. The class given is in vivo, male Donryu rats. The note with it: Rattus norvegicus, 72 h; rats, oral, twice daily for 3 days. The method, then:
(§7) (e) Inhibition of Granuloma Formation by Cotton Pellet Method
(§8) Following the method of C. […] Thereafter, the compounds were administered orally. Beginning the next day, the compounds were administered orally at 9:00 a.m. and 4:00 p.m. for 3 days. The day after final administration, the pellets were removed, dried and weighed to determine the weight of the granuloma formed around the pellets. Inhibitory percentage was calculated as follows: [formula] (f) Analgesic Activity by Acetylcholine-Induced Writhing Method in Mice

A short description of data set [7]: Inhibition of Carrageenin-Induced Paw Edema. Type of data set: in vivo, male Donryu rats. The note with it: rat, in vivo; rats, oral; ratio of LD50 to ED40; read-out: LD50/ED40, Carrageenin-Induced Paw Edema (safety margin). As for the experimental part:
as §1, §2, §3

Data set [8] can be described thus: Inhibition of Intraperitoneal Dye Leakage. The settings on record: rat, in vivo; rats, oral; ratio of LD50 to ED30; read-out: LD50/ED30, Intraperitoneal Dye Leakage (safety margin). The class given is in vivo, male Donryu rats. The method, then: as §3, §4
Data set [9] in a line: Inhibition of Granuloma Formation by Granuloma Pouch Method. Type of data set: in vivo, male Wistar rats. The note with it: rat, in vivo; rats, oral; ratio of LD50 to ED20; read-out: LD50/ED20, Granuloma Pouch Method (safety margin). The method, then: as §5, §6
A short description of data set [10]: Inhibition of Granuloma Formation by Cotton Pellet Method. The settings on record: rat, in vivo; rats, oral; ratio of LD50 to ED20; read-out: LD50/ED20, Cotton Pellet Method (safety margin). Type of data set: in vivo, male Donryu rats. As for the experimental part:
as §7, §8

[11] abbreviates: po, read-out: Inhibition of Granuloma Formation by Granuloma Pouch Method, Inhibition (%).

As to `CC(=O)C(C)Cc1ccc(C(C)C(=O)O)cc1` (centres unmarked) [Compound A, 2-[4-(2-methyl-3-oxobutyl)phenyl]propionic acid], in data set [1] (3 hours after carrageenin), 3 mg/kg produced 31.7% inhibition. This molecule yielded an inhibition at 2 mg/kg in [2] (45 minutes after acetic acid) of 30.6%. The molecule also gave an inhibition at 8 mg/kg in data set [3] (rats, oral, 8 mg/kg, twice daily for 6 days) of 22.3%. In data set [4] (250 mg/kg), the “Acute Toxicity, Died/Treated” value was 1/8.
As to `CC(C)Cc1ccc(C(C)C(=O)O)cc1` (centres unmarked) [Ibuprofen, reference compound], the ED50 in data set [5] worked out at 4.7 mg/kg. Moreover, in [1], the ED40 was 16 mg/kg. Further, the inhibition at 10 mg/kg in data set [1] (10 mg/kg, 3 hours after carrageenin) is 31.2%; in data set [2] (10 mg/kg, 45 minutes after acetic acid), 17.8%. In [2], the ED30 stood at 17 mg/kg. For the same molecule, the ED20 in data set [3] (po) was 42 mg/kg; in [6], 22 mg/kg. For the same molecule, the inhibition at 50 mg/kg in data set [3] (setting [11]) was 21.1%. Moreover, the “Acute Toxicity, Died/Treated” value in [4] (625 mg/kg) is 3/8.
In the case of `CCC(Cc1ccc(C(C)C(=O)O)cc1)C(C)O` (centres unmarked) [Compound D, 2-[4-(2-ethyl-3-hydroxybutyl)phenyl]propionic acid], in data set [5], it took a dose of 2.7 mg/kg to reach the 50% effect level (ED50). Also, the selectivity ratio in [7] is 52.8; in [8], 426; in [9] it was 181; in data set [10], 400. Also, the ED40 in [1] turned out to be 2.5 mg/kg. Testing at 2 mg/kg in data set [1] (3 hours after carrageenin) gave an inhibition of 38.1%. This molecule also came in with an ED30 in data set [2] of 0.31 mg/kg. The molecule further came in with an inhibition at 0.5 mg/kg in data set [2] (45 minutes after acetic acid) of 34.4%. Besides, the ED20 came out at 0.73 mg/kg in data set [3] (po) and 0.33 mg/kg in [6]. Further, the inhibition at 1 mg/kg in data set [3] (setting [11]) amounted to 23.5%. The LD50 at 168 h in [4] (rat, in vivo, read-out: Acute Toxicity LD50) came out at 132 mg/kg. In addition, the “Acute Toxicity, Died/Treated” value in [4] (125 mg/kg) is reported as 3/8.
For `CC(C(=O)O)c1ccc(CC(C)C(C)O)cc1` (centres unmarked) [Compound B, 2-[4-(2-methyl-3-hydroxybutyl)phenyl]propionic acid], at 3 mg/kg the inhibition in [1] (3 hours after carrageenin) was 34.9%. In addition, the inhibition at 2 mg/kg in [2] (45 minutes after acetic acid) amounted to 35.3%. Besides, the inhibition at 6 mg/kg in [3] (rats, oral, 6 mg/kg, twice daily for 6 days) was 24.2%. The “Acute Toxicity, Died/Treated” value in data set [4] (250 mg/kg) was 1/8.
`CCC(Cc1ccc(C(C)C(=O)O)cc1)C(C)=O` (centres unmarked) [Compound C, 2-[4-(2-ethyl-3-oxobutyl)phenyl]propionic acid]: the inhibition at 2 mg/kg in data set [1] (3 hours after carrageenin) was 35.2%. Further, the inhibition at 0.5 mg/kg in data set [2] (45 minutes after acetic acid) came out at 28.2%. In addition, the inhibition at 1 mg/kg in data set [3] (rats, oral, 1 mg/kg, twice daily for 6 days, read-out: Inhibition of Granuloma Formation by Granuloma Pouch Method, Inhibition (%)) came to 22.7%. Further, the “Acute Toxicity, Died/Treated” value in data set [4] (125 mg/kg) is on record as 2/8.

One may read the inhibition as the change of the read-out against control, counted positive when it falls. The term ED50 denotes the midpoint of the dose-response relation. Read a high ED50 as weaker potency. What is called LD50 is the dose expected to kill half of the subjects tested.
